These results are taken from patent publication US20220184080A1 (Aerovate Therapeutics, Inc., priority 2019, published 2022).

The nature of this data set: thermal stability of imatinib salt forms. The format is physicochemical. To be noted: method not described.

Regarding `O=S(=O)(O)CCO` [isethionate], the thermal stability entry is “suitable thermal stability”.

With malate, the thermal stability result was “suitable thermal stability”.

As for malonate, the thermal stability entry is given as “suitable thermal stability”.

For the compound tartrate, the thermal stability result was “suitable thermal stability”.
